Reference: article PMC6199744, “Development of Chemical Proteomics for the Folateome and Analysis of the Kinetoplastid Folateome” (ACS Infectious Diseases, 2018)
“And” between values parts separate entries of the source, which are not always exact repeats. Equal values may be shown once. Read-outs that look alike come from different tables or passages of the source.

Tested on: L. major lysate proteins
Assay: Multitargeted bead mixture chemoproteomics, single concentration competition, proteome-wide
Type: binding
Conditions: for fold change / fold change relative to vehicle control: vehicle control = 1; for fold change relative to vehicle control: competition with free ligand

Nc1nc2cccc(-c3ccccc3)c2n1Cc1ccc(Cl)c(Cl)c1 [compound 3]
fold change vs vehicle control: 1.02 and 1.09 and 1
fold change (LINJ.05.0500 ATPASE ALPHA SUBUNIT): 1.08
fold change (LINJ.36.4570 […] SUBUNIT): 0.83
fold change (LMJF.10.0510 GLYCEROL-3-PHOSPHATE DEH[…] ], GLYCOSOMAL): 0.91
fold change (LMJF.16.1610 PROHIBITIN): 1.25
fold change (LMJF.18.1370 HEAT SHOCK PROTEIN, PUTATIVE): 1.16
fold change (LMJF.19.0300 RNA BINDING PROTEIN, PUTATIVE): 0.91
fold change (LMJF.21.0760 […]-ATP-ASE SUBUNIT 5, PUTATIVE): 0.77
fold change (LMJF.22.0410 HY[…], CONSERVED): 0.97
fold change (LMJF.25.1770 ENOYL-COA REDUCTASE, PUTATIVE): 1.06
fold change (LMJF.26.0300 AMINOPEPTIDASE-LIKE PROTEIN): 0.7
fold change (LMJF.26.2560 HY[…], CONSERVED): 1.1
fold change (LMJF.27.1810 GLYCOSOMAL PHOSPHOENOLPYRUVATE CARBOXYKINASE, PUTATIVE): 1.1
fold change (LMJF.28.0490 PROPIONYL-COA C[…] CHAIN, PUTATIVE): 0.63
fold change (LMJF.29.0940 HY[…], CONSERVED): 1.08
fold change (LMJF.29.1310 CARNITINE/CHOLINE ACETYLTRANSFERASE, PUTATIVE): 0.86
fold change (LMJF.29.1470 HY[…], CONSERVED): 0.86
fold change (LMJF.29.2440 HY[…], CONSERVED): 1.01
fold change (LMJF.30.2350 SPHINGOSINE 1-PHOSPHATE LYASE): 1.2
fold change (LMJF.30.2970 GLYCERALDEHYDE 3-PHOSPHATE DEHYDROGENASE, GLYCOSOMAL): 1.09
fold change (LMJF.30.3390 CAS/CSE/IMPORTIN DOMAIN PROTEIN, PUTATIVE): 0.98
fold change (LMJF.31.2650 ACETOIN DEHYDROGENASE E3 COMPONENT-LIKE PROTEIN): 0.96
fold change (LMJF.31.2970 ACETYL-COA CARBOXYLASE, PUTATIVE): 0.89
fold change (LMJF.33.1030 HY[…], CONSERVED): 0.88
fold change (LMJF.35.5040 polyadenylate-binding protein 1): 0.88
fold change (LMJF.35.5250 ALPHA-1,2-MANNOSYLTRANSFERASE, PUTATIVE): 0.83
fold change (LMJF.36.5100 HY[…], CONSERVED): 1.03
fold change (LMJF.[…] RIBOSOMAL PROTEIN S7, PUTATIVE): 1.35
fold change vs vehicle control (protein LINJ.03.0940 HY[…], CONSERVED): 1.07
fold change vs vehicle control (protein LINJ.09.0030 HY[…], CONSERVED): 0.7
fold change relative to vehicle control (protein LINJ.11.0780 40S RIBOSOMAL PROTEIN S21, PUTATIVE): 1.32
fold change (protein LINJ.13.0990 […] SUBUNIT 2, PUTATIVE): 0.91
fold change vs vehicle control (protein LINJ.13.1460 ALPHA TUBULIN): 0.98
fold change (protein LINJ.15.0090 HEAT SHOCK PROTEIN HSLVU, ATPASE SUBUNIT HSLU, PUTATIVE): 0.88
fold change relative to vehicle control (protein LINJ.16.1380 […], PUTATIVE): 0.96
fold change vs vehicle control (protein LINJ.19.0300 RNA BINDING PROTEIN): 1.22
fold change (protein LINJ.20.0630 CYTIDINE TR[…], PUTATIVE): 1.05
fold change relative to vehicle control (protein LINJ.20.1390 COATOMER BETA SUBUNIT, PUTATIVE): 0.93
fold change vs vehicle control (protein LINJ.21.1310 40S RIBOSOMAL PROTEIN S23, PUTATIVE): 1.16
fold change vs vehicle control (protein LINJ.23.1680 HY[…], CONSERVED): 1.1
fold change vs vehicle control (protein LINJ.25.1170 […] OXIDASE VII, PUTATIVE): 1.01
fold change relative to vehicle control (protein LINJ.25.1220 RIBOSOMAL PROTEIN S25): 1.27
fold change vs vehicle control (protein LINJ.26.1080 HY[…], CONSERVED): 1.08
fold change vs vehicle control (protein LINJ.27.1140 HY[…], CONSERVED): 1.02
fold change vs vehicle control (protein LINJ.28.1100 RIBOSOMAL PROTEIN S20, PUTATIVE): 0.97
fold change relative to vehicle control (protein LINJ.28.1940 R[…] A, 51KDA SUBUNIT, PUTATIVE): 1.1
fold change (protein LINJ.31.2350 ADP-RI[…], PUTATIVE): 1.09
fold change vs vehicle control (protein LINJ.34.0670 […]-ATP-ASE SUBUNIT 11, PUTATIVE): 0.75
fold change (protein LINJ.35.0410 40S RIBOSOMAL PROTEIN S3A, PUTATIVE): 1.1
fold change relative to vehicle control (protein LINJ.35.0780 CBS DOMAIN PROTEIN, CONSERVED): 1.01
fold change vs vehicle control (protein LINJ.36.0510 HY[…], CONSERVED): 0.99
fold change vs vehicle control (protein LINJ.36.3940 40S RIBOSOMAL PROTEIN S27-1, PUTATIVE): 0.88
fold change (protein LINJ.36.4180 HS1VU COMPLEX P[…]-LIKE): 0.87
fold change (protein LINJ.36.7350 […] OXIDASE SUBUNIT I): 0.96
fold change (protein LMJF.01.0520 LONG-CHAIN-FATTY-ACID-COA LIGASE, PUTATIVE): 0.91
fold change vs vehicle control (protein LMJF.02.0460 HY[…], CONSERVED): 1.05
fold change vs vehicle control (protein LMJF.03.0230 LONG CHAIN FATTY ACYL COA SYNTHETASE, PUTATIVE): 0.98
fold change vs vehicle control (protein LMJF.03.0630 HY[…], CONSERVED): 0.95
fold change (protein LMJF.05.0780 HY[…], CONSERVED): 1.06
fold change (protein LMJF.06.0010 HISTONE H4): 1.11
fold change (protein LMJF.06.0140 […] 6 SUBUNIT, PUTATIVE): 0.69
fold change (protein LMJF.06.0650 […], PUTATIVE): 1
fold change vs vehicle control (protein LMJF.08.0510 RIBOSE-PHOSPHATE PYROPHOSPHOKINASE, PUTATIVE): 0.99
fold change vs vehicle control (protein LMJF.08.0550 T[…]-LIKE PROTEIN): 1.01
fold change vs vehicle control (protein LMJF.08.1100 HY[…], CONSERVED): 0.98
fold change relative to vehicle control (protein LMJF.09.1120 MIT[…] BINDING PROTEIN 2,MRP2, GBP25): 1.01
fold change vs vehicle control (protein LMJF.09.1260 HY[…], CONSERVED): 0.98
fold change (protein LMJF.10.1010 NUCLEOSIDE PHOSPHORYLASE-LIKE PROTEIN): 0.97
fold change (protein LMJF.10.1240 HY[…], CONSERVED): 0.91
fold change vs vehicle control (protein LMJF.11.0130 NGG1 I[…] 3-LIKE PROTEIN): 0.94
fold change vs vehicle control (protein LMJF.11.0240 […] 7 SUBUNIT, PUTATIVE): 1.1
fold change (protein LMJF.11.1050 PRETRA[…], ALPHA SUBUNIT, PUTATIVE): 1.24
fold change vs vehicle control (protein LMJF.11.1110 60S RIBOSOMAL PROTEIN L28, PUTATIVE): 1.17
fold change vs vehicle control (protein LMJF.12.0210 […] […]1L8 3, PUTATIVE): 1.07
fold change vs vehicle control (protein LMJF.12.0280 ORNITHINE DECARBOXYLASE, PUTATIVE): 1
fold change vs vehicle control (protein LMJF.13.0450 HY[…], CONSERVED): 0.93
fold change vs vehicle control (protein LMJF.13.0870 MIT[…] ALPHA SUBUNIT, PUTATIVE): 1.33
fold change vs vehicle control (protein LMJF.14.0130 INOSINE-GUANINE […], PUTATIVE): 0.93
fold change (protein LMJF.14.0310 […] 3 SUBUNIT, PUTATIVE): 0.98
fold change (protein LMJF.14.0650 FATTY ACID ELONGASE, PUTATIVE): 1.11
fold change (protein LMJF.14.0660 FATTY ACID ELONGASE, PUTATIVE): 1.17
fold change (protein LMJF.14.0705 FATTY ACID ELONGASE, PUTATIVE): 1.24
fold change (protein LMJF.14.0740 FATTY ACID ELONGASE, PUTATIVE): 1.23
fold change relative to vehicle control (protein LMJF.14.1120 KINESIN K39, PUTATIVE): 1.49
fold change vs vehicle control (protein LMJF.15.0230 LYSYL-TRNA SYNTHETASE, PUTATIVE): 1.01
fold change vs vehicle control (protein LMJF.15.0280 RIBONUCLEOPROTEIN P18, MIT[…], PUTATIVE): 0.99
fold change (protein LMJF.15.1010 GLUTAMATE DEHYDROGENASE): 1.08
fold change relative to vehicle control (protein LMJF.16.0520 HY[…], CONSERVED): 1.36
fold change (protein LMJF.16.0540 ASPARTATE […], PUTATIVE): 1.04
fold change vs vehicle control (protein LMJF.16.0950 SUCROSE-PHOSPHATE SYNTHASE-LIKE PROTEIN): 1.31
fold change vs vehicle control (protein LMJF.16.0960 HY[…], CONSERVED): 0.93
fold change (protein LMJF.16.1180 COATOMER DELTA SUBUNIT-LIKE PROTEIN): 1.08
fold change (protein LMJF.17.0010 HY[…], CONSERVED): 1.07
fold change vs vehicle control (protein LMJF.18.0510 ACONITASE, PUTATIVE): 1.01
fold change vs vehicle control (protein LMJF.18.0890 RAB7 GTP BINDING PROTEIN, PUTATIVE): 0.91
fold change (protein LMJF.18.1130 RAS-RELATED PROTEIN RAB-5, PUTATIVE): 1
fold change (protein LMJF.19.1120 […]-ATP-ASE SUBUNIT, PUTATIVE): 0.82
fold change vs vehicle control (protein LMJF.19.1160 HY[…], CONSERVED): 3.16
fold change vs vehicle control (protein LMJF.19.1530 PEPT[…]-LIKE PROTEIN): 1.01
fold change (protein LMJF.20.0100 PHOSPH[…] C, GLYCOSOMAL): 1.01
fold change vs vehicle control (protein LMJF.21.0720 HY[…], CONSERVED): 0.93
fold change (protein LMJF.21.1250 ADENYLATE KINASE, PUTATIVE): 0.71
fold change (protein LMJF.21.1555 HY[…], CONSERVED): 1.05
fold change (protein LMJF.21.1580 HY[…], UNKNOWN FUNCTION): 1.2
fold change vs vehicle control (protein LMJF.21.1700 […] 2 SUBUNIT, PUTATIVE): 1.03
fold change (protein LMJF.22.0230 AMINO ACID PERMEASE, PUTATIVE): 1.26
fold change (protein LMJF.22.0570 […] SUBUNIT 1, PUTATIVE): 0.99
